# Laboratory results taken from ChEMBL document CHEMBL5523746, “Discovery of Novel Peptide Antagonists Targeting GPR55 for Liver Inflammation and Fibrosis” (2024).
# Activity calls are given as the source filed them. The rule behind the calls is not given here. Bridge positions count the residues as written; N and C are the ends. Peptide text beside a SMILES is read from it.
# Experiments:
# Mus musculus [1] = test: In vivo anti-fibrotic activity against methionine and choline-deficient (MCD) diet-induced liver fibrosis C57BL/6J mouse model assessed as reduction in oxidative stress by measuring increase in superoxide dismutase at 150 to 300 microg/kg once daily for 3 weeks by enzyme activity assay; type: functional, organism-based; details: dose 150-300 µg/kg
# Mus musculus [2] = test: In vivo anti-fibrotic activity against methionine and choline-deficient (MCD) diet-induced liver fibrosis C57BL/6J mouse model assessed as reduction in inflammation by measuring decrease in Ly6G inflammation marker at 150 to 300 microg/kg once daily for 3 weeks by IHC staining based assay; type: functional, organism-based; details: dose 150-300 µg/kg
# Mus musculus [3] = test: In vivo anti-fibrotic activity against CCl4-induced liver fibrosis C57BL/6J mouse model assessed as decrease in pro-apoptotic protein CHOP level at 300 microg/kg once daily for 3 weeks by Western blot analysis; type: functional, organism-based; details: dose 300.0 µg/kg
# Mus musculus [4] = test: In vivo anti-fibrotic activity against CCl4-induced liver fibrosis C57BL/6J mouse model assessed as reduction in hepatocyte apoptosis by measuring increase in BAX protein in cytoplasm at 300 microg/kg once daily for 3 weeks; type: functional, organism-based; details: dose 300.0 µg/kg
# Mus musculus [5] = test: In vivo anti-fibrotic activity against CCl4-induced liver fibrosis C57BL/6J mouse model assessed as liver function by measuring decrease in hydroxyproline (HYP) at 150 to 300 microg/kg once daily for 3 weeks by Western blot analysis; type: functional, organism-based; details: dose 150-300 µg/kg
# LX-2 = test: Anti-fibrotic activity in human LX2 cells assessed as reduction in […] expression by measuring relative inhibition rate measured after 24 hrs incubation by Western blot analysis relative to control; type: functional; parameters: concentration or dose not given beside the values
# Mus musculus [6] = test: In vivo anti-fibrotic activity against CCl4-induced liver fibrosis C57BL/6J mouse model assessed as decrease in alpha-SMA at 150 to 300 microg/kg once daily for 3 weeks by IHC staining based assay; type: functional, organism-based; details: dose 150-300 µg/kg
# Mus musculus [7] = test: In vivo anti-fibrotic activity against methionine and choline-deficient (MCD) diet-induced liver fibrosis C57BL/6J mouse model assessed as decrease in inflammatory infiltration and collagen deposition at 150 to 300 microg/kg once daily for 3 weeks by ORO staining based assay; type: functional, organism-based; details: dose 150-300 µg/kg
# Mus musculus [8] = test: In vivo anti-fibrotic activity against CCl4-induced liver fibrosis C57BL/6J mouse model assessed as reduction in oxidative stress by measuring increase in superoxide dismutase at 150 to 300 microg/kg once daily for 3 weeks by enzyme activity assay; type: functional, organism-based; details: dose 150-300 µg/kg
# Mus musculus [9] = test: Reduction in fatty acid synthesis related gene expression in methionine and choline-deficient (MCD) diet-induced liver C57BL/6J fibrosis mouse model assessed as reduction in FATP1 mRNA level at 150 to 300 microg/kg once daily for 3 weeks by qPCR analysis; type: functional, organism-based; details: dose 150-300 µg/kg
# Mus musculus [10] = test: Induction of fatty acid beta-oxidation related gene expression in methionine and choline-deficient (MCD) diet-induced liver fibrosis C57BL/6J mouse model assessed as increase in PPARalpha mRNA level at 150 to 300 microg/kg once daily for 3 weeks by qPCR analysis; type: functional, organism-based; details: dose 150-300 µg/kg
# Mus musculus [11] = test: In vivo anti-fibrotic activity against methionine and choline-deficient (MCD) diet-induced liver fibrosis C57BL/6J mouse model assessed as decrease in inflammatory infiltration and collagen deposition at 150 to 300 microg/kg once daily for 3 weeks by H and E staining based assay; type: functional, organism-based; details: dose 150-300 µg/kg
# Mus musculus [12] = test: Induction of fatty acid beta-oxidation related gene expression in methionine and choline-deficient (MCD) diet-induced liver fibrosis C57BL/6J mouse model assessed as increase in LCAD mRNA level at 150 to 300 microg/kg once daily for 3 weeks by qPCR analysis; type: functional, organism-based; details: dose 150-300 µg/kg
# Mus musculus [13] = test: In vivo anti-fibrotic activity against CCl4-induced liver fibrosis C57BL/6J mouse model assessed as reduction in […] mRNA level at 150 to 300 microg/kg once daily for 3 weeks by RT-qPCR analysis; type: functional, organism-based; details: dose 150-300 µg/kg
smiles,measurement,setting,value
CC[C@H](C)[C@@H]1NC(=O)[C@H]([C@@H](C)O)NC(=O)[C@@H]2CCCN2C(=O)[C@H](CO)NC(=O)[C@H](CC(N)=O)NC(=O)[C@H](CCCCN)NC(=O)[C@H](CCCCN)NC(=O)[C@@H](N)CSSC[C@@H](C(=O)O)NC1=O (H-CKKNSPTIC-OH; disulfide 1-9),Activity,Mus musculus [1],Active
same,Activity,Mus musculus [2],Active
same,Activity,Mus musculus [3],Active
same,Activity,Mus musculus [4],Active
same,Activity,Mus musculus [5],Active
same,Activity,LX-2,47%
same,Activity,Mus musculus [6],Active
same,Activity,Mus musculus [7],Active
same,Activity,Mus musculus [8],Active
same,Activity,Mus musculus [9],Active
same,Activity,Mus musculus [10],Active
same,Activity,Mus musculus [11],Active
same,Activity,Mus musculus [12],Active
same,Activity,Mus musculus [13],Active
